{"source": "patent US12157730B2", "about": "“Heteroaryl derivative, method for producing same, and pharmaceutical composition comprising same as effective component” (VORONOI INC., priority 2019, dated 2024)", "molecular_target": "T1, Ba/F3 cell EGFR Exon20 ins NPH (Homo sapiens, UniProt P00533, INS773NPH)", "T1 construct": "expressed in transfected cells; host or cells: Ba/F3", "assay": "Ba/F3 cell proliferation suppression, EGFR Exon20 ins NPH", "type": "cell-based", "details": "GI50 class; Ba/F3 cell line with NPH inserted at Exon20 of EGFR; 72 hours", "in_short": "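Cells (3000–5000/well) plated 24 h before compound, 12-point 3-fold dilutions at 0.3 nM to 50 um final; Ba/F3 lines grown with 5 ng/ml IL-3. Viability by CellTiter-Glo luminescence after 72 h, growth ratio vs control, GI50 from curves; triplicate.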", "data": [{"smiles": "C=CC(=O)Nc1cc(Nc2cc(N3OCC[C@@H]3c3ccc(F)cc3F)ncn2)c(OC)cc1N1CCN(C2CC2)CC1", "note": "[compound 344, N-(2-(4-cyclopropylpiperazine-1-yl)-5-((6-((R)-3-(2,4-difluorophenyl)isoxazolidine-2-yl)pyrimidine-4-yl)amino)-4-methoxyphenyl) acrylamide]", "values": [{"measurement": "Ba/F3 (NPH) Activity", "result": "A (GI50 < 50 nM)"}]}, {"smiles": "C=CC(=O)Nc1cc(Nc2cc(N3OCC[C@@H]3c3cccc(Cl)c3Cl)ncn2)c(OC)cc1N1CCN(C2CC2)CC1", "note": "[compound 518, N-(2-(4-cyclopropylpiperazine-1-yl)-5-((6-((R)-3-(2,3-dichlorophenyl)isoxazolidine-2-yl)pyrimidine-4-yl)amino)-4-methoxyphenyl) acrylamide]", "values": [{"measurement": "Ba/F3 (NPH) Activity", "result": "A (GI50 < 50 nM)"}]}, {"smiles": "C#Cc1cccc([C@H]2CCON2c2cc(Nc3cc(NC(=O)C=C)c(N4CCC(N5CCC(N(C)C)CC5)CC4)cc3OC)ncn2)c1", "note": "[compound 655, N-(2-(4-(dimethylamino)-[1,4'-bipiperidine]-1'-yl)-5-((6-((R)-3-(3-ethynylphenyl)isoxazolidine-2-yl)pyrimidine-4-yl)amino)-4-methoxyphenyl) acrylamide]", "values": [{"measurement": "Ba/F3 (NPH) Activity", "result": "B (50 nM ≤ GI50 < 500 nM)"}]}, {"smiles": "C=CC(=O)Nc1cc(Nc2cc(N3OCC[C@@H]3c3ccc(F)cc3)ncn2)c(OC)cc1N(C)CCN(C)C", "note": "[Example 39, N-(2-((2-(dimethylamino)ethyl)(methyl)amino)-5-((6-((R)-3-(4-fluorophenyl)isoxazolidine-2-yl)pyrimidine-4-yl)amino)-4-methoxyphenyl) acrylamide]", "values": [{"measurement": "Ba/F3 (NPH) Activity", "result": "A (GI50 < 50 nM)"}]}, {"smiles": "C=CC(=O)Nc1cc(Nc2cc(N3OCC[C@@H]3Cc3cccc(Cl)c3F)ncn2)c(OC)cc1N(C)CCN(C)C", "note": "[compound 1016, N-(5-((6-((S)-3-(3-chloro-2-fluorobenzyl)isoxazolidine-2-yl)pyrimidine-4-yl)amino)-2-((2-(dimethylamino)ethyl)(methyl)amino)-4-methoxyphenyl) acrylamide]", "values": [{"measurement": "Ba/F3 (NPH) Activity", "result": "A (GI50 < 50 nM)"}]}, {"smiles": "C=CC(=O)Nc1cc(Nc2cc(N3OCC[C@@H]3c3ccc4ccccc4c3)ncn2)c(OC)cc1N1CCO[C@@H](C)C1", "note": "[compound 659, N-(4-methoxy-2-((S)-2-methylmorpholino)-5-((6-((R)-3-(naphthalene-2-yl)isoxazolidine-2-yl)pyrimidine-4-yl)amino)phenyl)acrylamide]", "values": [{"measurement": "Ba/F3 (NPH) Activity", "result": "B (50 nM ≤ GI50 < 500 nM)"}]}, {"smiles": "C=CC(=O)Nc1cc(Nc2cc(N3OCC[C@@H]3Cc3cccc(Cl)c3C)ncn2)c(OC)cc1N1CCC(N2CCN(C3CC3)[C@H](C)C2)CC1", "note": "[compound 1027, N-(5-((6-((S)-3-(3-chloro-2-methylbenzyl)isoxazolidine-2-yl)pyrimidine-4-yl)amino)-2-(4-((R)-4-cyclopropyl-3-methylpiperazine-1-yl)piperidine-1-yl)-4-methoxyphenyl) acrylamide]", "values": [{"measurement": "Ba/F3 (NPH) Activity", "result": "A (GI50 < 50 nM)"}]}, {"smiles": "C=CC(=O)Nc1cc(Nc2cc(N3OCC[C@@H]3c3cccc(C)c3F)ncn2)c(OC)cc1N1CCC(N(C)C)CC1", "note": "[compound 864, N-(2-(4-(dimethylamino)piperidine-1-yl)-5-((6-((R)-3-(2-fluoro-3-methylphenyl)isoxazolidine-2-yl)pyrimidine-4-yl)amino)-4-methoxyphenyl) acrylamide]", "values": [{"measurement": "Ba/F3 (NPH) Activity", "result": "A (GI50 < 50 nM)"}]}, {"smiles": "C=CC(=O)Nc1cc(Nc2cc(N3OCC[C@@H]3c3cccc(Cl)c3Cl)ncn2)c(OC)cc1N1CCC(N(C)CCN(C)C)CC1", "note": "[compound 613, N-(5-((6-((R)-3-(2,3-dichlorophenyl)isoxazolidine-2-yl)pyrimidine-4-yl)amino)-2-(4-((2-(dimethylamino)ethyl) (methyl)aino)piperidine-1-yl)-4-methoxyphenyl) acrylamide]", "values": [{"measurement": "Ba/F3 (NPH) Activity", "result": "B (50 nM ≤ GI50 < 500 nM)"}]}, {"smiles": "C=CC(=O)Nc1cc(Nc2cc(N3OCC[C@@H]3Cc3cccc(F)c3C)ncn2)c(OC)cc1N1CCN(C2CC2)CC1", "note": "[compound 1038, N-(2-(4-cyclopropylpiperazine-1-yl)-5-((6-((S)-3-(3-fluoro-2-methylbenzyl)isoxazolidine-2-yl)pyrimidine-4-yl)amino)-4-methoxyphenyl) acrylamide]", "values": [{"measurement": "Ba/F3 (NPH) Activity", "result": "A (GI50 < 50 nM)"}]}, {"smiles": "C=CC(=O)Nc1cc(Nc2cc(N3OCC[C@@H]3c3ccc(F)c(F)c3F)ncn2)c(OC)cc1N1CCC(N(C)C)CC1", "note": "[compound 573, N-(2-(4-(dimethylamino)piperidine-1-yl)-4-methoxy-5-((6-((R)-3-(2,3,4-trifluorophenyl)isoxazolidine-2-yl)pyrimidine-4-yl)amino)phenyl)acrylamide]", "values": [{"measurement": "Ba/F3 (NPH) Activity", "result": "A (GI50 < 50 nM)"}]}, {"smiles": "C=CC(=O)Nc1cc(Nc2cc(N3OCC[C@@H]3c3ccc(F)c(Cl)c3)ncn2)c(OC)cc1N(C)CCN(C)C", "note": "[compound 701, N-(5-((6-((R)-3-(3-chloro-4-fluorophenyl)isoxazolidine-2-yl)pyrimidine-4-yl)amino)-2-((2-(dimethylamino)ethyl)(methyl)amino)-4-methoxyphenyl) acrylamide]", "values": [{"measurement": "Ba/F3 (NPH) Activity", "result": "A (GI50 < 50 nM)"}]}, {"smiles": "C=CC(=O)Nc1cc(Nc2cc(N3OCC[C@@H]3c3cccc(Cl)c3C)ncn2)c(OC)cc1N1CCC(N2CCN(C(C)C)CC2)CC1", "note": "[compound 580, N-(5-((6-((R)-3-(3-chloro-2-methylphenyl)isoxazolidine-2-yl)pyrimidine-4-yl)amino)-2-(4-(4-isopropylpiperazine-1-yl)piperidine-1-yl)-4-methoxyphenyl) acrylamide]", "values": [{"measurement": "Ba/F3 (NPH) Activity", "result": "A (GI50 < 50 nM)"}]}, {"smiles": "C=CC(=O)Nc1cc(Nc2cc(N3OCC[C@@H]3c3cc(F)cc(Cl)c3)ncn2)c(OC)cc1N1CCC(N2CCN(C(C)C)CC2)CC1", "note": "[compound 593, N-(5-((6-((R)-3-(3-chloro-5-fluorophenyl)isoxazolidine-2-yl)pyrimidine-4-yl)amino)-2-(4-(4-isopropylpiperazine-1-yl)piperidine-1-yl)-4-methoxyphenyl) acrylamide]", "values": [{"measurement": "Ba/F3 (NPH) Activity", "result": "A (GI50 < 50 nM)"}]}, {"smiles": "C=CC(=O)Nc1cc(Nc2cc(N3OCC[C@@H]3c3cccc(Cl)c3F)ncn2)c(OC)cc1N1CCC(N2C[C@@H](C)N(C3CC3)C[C@H]2C)CC1", "note": "[Example 122, N-(5-((6-((R)-3-(3-chloro-2-fluorophenyl)isoxazolidine-2-yl)pyrimidine-4-yl)amino)-2-(4-((2R,5R)-4-cyclopropyl-2,5-dimethylpiperazine-1-yl)piperidine-1-yl)-4-methoxyphenyl) acrylamide]", "values": [{"measurement": "Ba/F3 (NPH) Activity", "result": "A (GI50 < 50 nM)"}]}, {"smiles": "C=CC(=O)Nc1cc(Nc2cc(N3OCC[C@@H]3c3cc(F)ccc3F)ncn2)c(OC)cc1N1CCC(N2C[C@H](C)N(C3CC3)C[C@@H]2C)CC1", "note": "[Example 171, N-(2-(4-((2S,5S)-4-cyclopropyl-2,5-dimethylpiperazine-1-yl)piperidine-1-yl)-5-((6-((R)-3-(2,5-difluorophenyl)isoxazolidine-2-yl)pyrimidine-4-yl)amino)-4-methoxyphenyl) acrylamide]", "values": [{"measurement": "Ba/F3 (NPH) Activity", "result": "A (GI50 < 50 nM)"}]}, {"smiles": "C=CC(=O)Nc1cc(Nc2cc(N3OCC[C@@H]3c3cc(F)cc(F)c3)ncn2)c(C)cc1N1CCC(N2CCN(C3CC3)CC2)CC1", "note": "[compound 534, N-(2-(4-(4-cyclopropylpiperazine-1-yl)piperidine-1-yl)-5-((6-((R)-3-(3,5-difluorophenyl)isoxazolidine-2-yl)pyrimidine-4-yl)amino)-4-methylphenyl) acrylamide]", "values": [{"measurement": "Ba/F3 (NPH) Activity", "result": "A (GI50 < 50 nM)"}]}, {"smiles": "C=CC(=O)Nc1cc(Nc2cc(N3OCC[C@@H]3c3cc(F)ccc3F)ncn2)c(OC)cc1N1CCC(N2CCCN(C3CC3)CC2)CC1", "note": "[compound 829, N-(2-(4-(4-cyclopropyl-1,4-diazepane-1-yl)piperidine-1-yl)-5-((6-((R)-3-(2,5-difluorophenyl)isoxazolidine-2-yl)pyrimidine-4-yl)amino)-4-methoxyphenyl) acrylamide]", "values": [{"measurement": "Ba/F3 (NPH) Activity", "result": "A (GI50 < 50 nM)"}]}, {"smiles": "C=CC(=O)Nc1cc(Nc2cc(N3OCC[C@@H]3c3cc(F)cc(F)c3)ncn2)c(OC)cc1N1CCN(C)[C@@H](C)C1", "note": "[compound 916, N-(5-((6-((R)-3-(3,5-difluorophenyl)isoxazolidine-2-yl)pyrimidine-4-yl)amino)-2-((S)-3,4-dimethylpiperazine-1-yl)-4-methoxyphenyl) acrylamide]", "values": [{"measurement": "Ba/F3 (NPH) Activity", "result": "A (GI50 < 50 nM)"}]}, {"smiles": "C=CC(=O)Nc1cc(Nc2cc(N3OCC[C@@H]3c3cccc(F)c3F)ncn2)c(OC)cc1N1CCC(N2CCN(C3CCC3)CC2)CC1", "note": "[Example 182, N-(2-(4-(4-cyclobutylpiperazine-1-yl)piperidine-1-yl)-5-((6-((R)-3-(2,3-difluorophenyl)isoxazolidine-2-yl)pyrimidine-4-yl)amino)-4-methoxyphenyl) acrylamide]", "values": [{"measurement": "Ba/F3 (NPH) Activity", "result": "A (GI50 < 50 nM)"}]}, {"smiles": "C=CC(=O)Nc1cc(Nc2cc(N3OCC[C@@H]3c3c(F)ccc(F)c3Cl)ncn2)c(OC)cc1N1CCC(N2CCN(C3CC3)CC2)CC1", "note": "[compound 933, N-(5-((6-((R)-3-(2-chloro-3,6-difluorophenyl)isoxazolidine-2-yl)pyrimidine-4-yl)amino)-2-(4-(4-cyclopropylpiperazine-1-yl)piperidine-1-yl)-4-methoxyphenyl) acrylamide]", "values": [{"measurement": "Ba/F3 (NPH) Activity", "result": "A (GI50 < 50 nM)"}]}, {"smiles": "C=CC(=O)Nc1cc(Nc2cc(N3OCC[C@@H]3Cc3cccc(Cl)c3Cl)ncn2)c(OC)cc1N1CCC(N2CCN(C3CC3)CC2)CC1", "note": "[compound 1009, N-(2-(4-(4-cyclopropylpiperazine-1-yl)piperidine-1-yl)-5-((6-((S)-3-(2,3-dichlorobenzyl)isoxazolidine-2-yl)pyrimidine-4-yl)amino)-4-methoxyphenyl) acrylamide]", "values": [{"measurement": "Ba/F3 (NPH) Activity", "result": "A (GI50 < 50 nM)"}]}, {"smiles": "C=CC(=O)Nc1cc(Nc2cc(N3OCC[C@@H]3c3cccc(F)c3F)ncn2)c(OC)cc1N1CCN(C(C)C)CC1", "note": "[compound 334, N-(5-((6-((R)-3-(2,3-difluorophenyl)isoxazolidine-2-yl)pyrimidine-4-yl)amino)-2-(4-isopropylpiperazine-1-yl)-4-methoxyphenyl) acrylamide]", "values": [{"measurement": "Ba/F3 (NPH) Activity", "result": "A (GI50 < 50 nM)"}]}]}
